Where two headings read alike, the source gives them in different places.
Columns and labels:
[1] = biological target: GSK3b (GST-full length GSK3b) (Homo sapiens (Human), UniProt P49841); assay: GSK3b TR-FRET kinase assay; assay type: biochemical
In short: (§1)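 Compound was preincubated 30 min with 1 nM GST-GSK3 enzyme. Reaction ran 100 min at ambient temperature in Tris pH 7.5/MgCl2 with 200 nM biotinylated pS645-glycogen synthase 631-650 peptide and ATP (4 μM GSK3α, 2 μM GSK3b, or 1 mM). The EDTA-stopped reaction was read by TR-FRET (Tb-anti-pSer641/streptavidin-d2), and IC50s were fitted.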

[2] = biological target: GSK3α (GST-full length GSK3α) (Homo sapiens (Human), UniProt P49840); assay: GSK3α TR-FRET kinase assay; assay type: biochemical
Sequence of GSK3α (GST-full length GSK3α) (P49840 whole entry): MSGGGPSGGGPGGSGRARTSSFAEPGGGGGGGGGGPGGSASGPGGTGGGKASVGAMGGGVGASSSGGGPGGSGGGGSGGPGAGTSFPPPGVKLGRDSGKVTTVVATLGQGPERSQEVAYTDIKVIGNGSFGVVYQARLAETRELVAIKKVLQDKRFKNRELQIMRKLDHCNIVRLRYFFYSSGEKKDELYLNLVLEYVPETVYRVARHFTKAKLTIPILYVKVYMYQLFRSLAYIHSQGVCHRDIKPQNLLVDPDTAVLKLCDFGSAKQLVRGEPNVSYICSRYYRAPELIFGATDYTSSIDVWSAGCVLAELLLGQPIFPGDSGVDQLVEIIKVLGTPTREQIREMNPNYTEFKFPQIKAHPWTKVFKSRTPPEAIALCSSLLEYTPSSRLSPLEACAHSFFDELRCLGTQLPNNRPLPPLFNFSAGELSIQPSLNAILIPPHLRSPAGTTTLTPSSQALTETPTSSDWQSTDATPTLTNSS
In short: as §1

[3] = 1 nM GSK3b, 2 μM ATP, 30 minute preincubation, Table 16, read-out: GSK3-B TR-FRET BIOCHEMICAL (TR-FRET), IC50
[4] = 1 nM GSK3α, 4 μM ATP, 30 minute preincubation, Table 16, read-out: GSK3-A TR-FRET BIOCHEMICAL (TR-FRET), IC50
[5] = 1 nM GSK3b, 2 μM ATP, 30 minute preincubation, Table 16, read-out: GSK3-B TR-FRET BIOCHEMICAL (TR-FRET)
[6] = 1 nM GSK3α, 4 μM ATP, 30 minute preincubation, Table 16, read-out: GSK3-A TR-FRET BIOCHEMICAL (TR-FRET)
[7] = read-out: GSK3-B (TR-FRET 1 mM ATP), GMean, IC50, 1 mM ATP, geometric mean
[8] = read-out: GSK3-A (TR-FRET 1 mM ATP), GMean, IC50, 1 mM ATP, geometric mean
[9] = 1 nM GSK3b, 2 μM ATP, 30 minute preincubation, read-out: GSK3-B TR-FRET BIOCHEMICAL (TR-FRET), IC50
[10] = 1 nM GSK3α, 4 μM ATP, 30 minute preincubation, read-out: GSK3-A TR-FRET BIOCHEMICAL (TR-FRET), IC50
[11] = GSK3-A (TR-FRET 1 mM ATP), GMean, IC50, 1 mM ATP, geometric mean
[12] = GSK3-B (TR-FRET 1 mM ATP), GMean, IC50, 1 mM ATP, geometric mean

Sequence of GSK3b (GST-full length GSK3b) (P49841 whole entry): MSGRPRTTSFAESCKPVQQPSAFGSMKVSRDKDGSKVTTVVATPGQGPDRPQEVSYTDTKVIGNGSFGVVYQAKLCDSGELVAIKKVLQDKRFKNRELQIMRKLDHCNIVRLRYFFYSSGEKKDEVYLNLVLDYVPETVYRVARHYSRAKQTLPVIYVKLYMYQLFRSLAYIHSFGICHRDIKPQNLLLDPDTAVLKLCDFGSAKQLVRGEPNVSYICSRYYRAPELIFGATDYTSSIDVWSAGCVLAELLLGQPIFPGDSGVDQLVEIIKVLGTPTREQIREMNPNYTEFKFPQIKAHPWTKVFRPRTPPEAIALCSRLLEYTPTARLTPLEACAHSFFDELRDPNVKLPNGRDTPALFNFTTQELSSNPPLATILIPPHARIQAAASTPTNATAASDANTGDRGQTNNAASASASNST

SMILES | IC50 [1, 5] [nM] | IC50 [2, 6] [nM] | other results
Cn1nccc1CN1CC2(C1)C1=C(CC(C)(C)CC1=O)Nc1n[nH]cc12 [Compound 932653] |  |  | IC50 [1, 3]: > 5000 nM; IC50 [2, 4]: 1000 to 5000 nM
CC1(C)CC(=O)C2=C(C1)Nc1n[nH]cc1C21CN(Cc2cnc3ccccn23)C1 [Compound 932654] |  |  | IC50 [1, 3]: > 5000 nM; IC50 [2, 4]: > 5000 nM
CC1(C)CC(=O)C2=C(C1)Nc1n[nH]cc1[C@]21CCCN(S(=O)(=O)C2CC2)CC1 [Compound 932659] | 100 to 1000 | ≤ 100 | 
CCC1(c2cccc(N3CCOc4ncccc43)c2)C2=C(CC(C)(C)CC2=O)Nc2n[nH]cc21 (stereo not shown) [Compound 932663] | ≤ 100 | ≤ 100 | 
CC[C@]1(c2cccc(N(C)c3cccc(OC)n3)c2)C2=C(CC(C)(C)CC2=O)Nc2n[nH]cc21 [Compound 932666] | 100 to 1000 | ≤ 100 | 
COC(=O)C1(c2ccccc2)CC2(C1)C1=C(CC(C)(C)CC1=O)Nc1n[nH]cc12 (stereo not shown) [Compound 942344] | 100 to 1000 | ≤ 100 | 
COC(=O)C1(c2ccccc2)CC2(C1)C1=C(CC(C)(C)CC1=O)Nc1n[nH]cc12 (stereo not shown) [Compound 942366] | ≤ 100 | ≤ 100 | 
CCC1(c2cccc(N(C)c3nccc(C)n3)c2)C2=C(CC(C)(C)CC2=O)Nc2n[nH]cc21 (stereo not shown) [Compound 942642] | ≤ 100 | ≤ 100 | IC50 [1, 7]: 1000 to 5000 nM; IC50 [2, 8]: ≤ 100 nM
CCC1(c2cccc(-c3cc(C)nn3C)c2)C2=C(CC(C)(C)NC2=O)Nc2[nH]ncc21 (stereo not shown) [Compound 943371] |  |  | IC50 [1, 9]: 1000 to 5000 nM; IC50 [2, 10]: ≤ 100 nM
CC1(C)CC(=O)C2=C(C1)Nc1n[nH]cc1[C@]21CCN(S(=O)(=O)CC2CC2)C1 [Compound 943481] | ≤ 100 | ≤ 100 | IC50 [1, 7]: 100 to 1000 nM; IC50 [2, 11]: 100 to 1000 nM
CC1(C)CC(=O)C2=C(C1)Nc1n[nH]cc1[C@]21CCN(S(=O)(=O)C2CCCC2)C1 [Compound 943482] | ≤ 100 | ≤ 100 | IC50 [1, 12]: 100 to 1000 nM; IC50 [2, 11]: 100 to 1000 nM
CC1(C)CC(=O)C2=C(C1)Nc1n[nH]cc1[C@]21CCN(S(=O)(=O)c2ccccc2F)C1 [Compound 943487] |  |  | IC50 [1, 9]: ≤ 100 nM; IC50 [1, 12]: 100 to 1000 nM; IC50 [2, 10]: ≤ 100 nM; IC50 [2, 11]: ≤ 100 nM
CCC1(c2cccc(N(C)c3ccnnc3)c2)C2=C(CC(C)(C)CC2=O)Nc2n[nH]cc21 (stereo not shown) [Compound 943492] | ≤ 100 | ≤ 100 | 
CCC1(c2cccc(-c3cnnc(C)c3)c2)C2=C(CC(C)(C)NC2=O)Nc2n[nH]cc21 (stereo not shown) [Compound 943496] |  |  | IC50 [1, 9]: 1000 to 5000 nM; IC50 [2, 10]: ≤ 100 nM
CC[C@]1(c2cccc(-c3cc(C)ncc3C)c2)C2=C(CC(C)(C)CC2=O)Nc2n[nH]cc21 [Compound 943515] | > 5000 | 1000 to 5000 | 
CCC1(c2cccc(-c3ccnc(C)c3C)c2)C2=C(CC(C)(C)CC2=O)Nc2n[nH]cc21 (stereo not shown) [Compound 943516] | ≤ 100 | ≤ 100 | IC50 [1, 7]: 1000 to 5000 nM; IC50 [2, 8]: ≤ 100 nM

Now from value to compound, other results behind:

IC50 [1, 5] [nM] | IC50 [2, 6] [nM] | SMILES | other results
100 to 1000 | ≤ 100 | Cn1ccc(S(=O)(=O)N2CCC[C@]3(CC2)C2=C(CC(C)(C)CC2=O)Nc2n[nH]cc23)n1 [Compound 932660] | 
≤ 100 | ≤ 100 | CC1(C)CC(=O)C2=C(C1)Nc1n[nH]cc1[C@]21CCN(S(C)(=O)=O)C1 [Compound 942432] | 
≤ 100 | ≤ 100 | CC1(C)CC(=O)C2=C(C1)Nc1n[nH]cc1[C@@]21CCN(S(C)(=O)=O)C1 [Compound 942462] | 
≤ 100 | ≤ 100 | Cn1cc(S(=O)(=O)N2CC[C@]3(C2)C2=C(CC(C)(C)CC2=O)Nc2n[nH]cc23)cn1 [Compound 943483] | 
≤ 100 | ≤ 100 | Cn1ccc(S(=O)(=O)N2CC[C@]3(C2)C2=C(CC(C)(C)CC2=O)Nc2n[nH]cc23)n1 [Compound 943484] | IC50 [1, 12]: 1000 to 5000 nM; IC50 [2, 11]: 100 to 1000 nM
≤ 100 | ≤ 100 | CC1(C)CC(=O)C2=C(C1)Nc1n[nH]cc1[C@]21CCN(S(=O)(=O)c2ccccc2)C1 [Compound 943485] | IC50 [1, 12]: 1000 to 5000 nM; IC50 [2, 11]: 100 to 1000 nM
≤ 100 | ≤ 100 | COc1cccc(S(=O)(=O)N2CC[C@]3(C2)C2=C(CC(C)(C)CC2=O)Nc2n[nH]cc23)c1 [Compound 943486] | 
≤ 100 | ≤ 100 | CC1(C)CC(=O)C2=C(C1)Nc1n[nH]cc1[C@]21CCN(S(=O)(=O)c2cccc(F)c2)C1 [Compound 943488] | 
≤ 100 | ≤ 100 | Cc1cccc(S(=O)(=O)N2CC[C@]3(C2)C2=C(CC(C)(C)CC2=O)Nc2n[nH]cc23)c1 [Compound 943489] | 
